US7781410B2 (priority 2006, dated 2010)

Tested on: Sebocytes
Assay: cells
Format: cell-based, human
Conditions: for % Reduction in Lipid Synthesis in Sebocytes [3 uM]: compound at 3 uM; for % Cholera Toxin Reduction: Green Tea Extract 0.0 μg/mL; for inhibition at 3 µM: Homo sapiens, read-out: % Reduction in Lipid Synthesis in Sebocytes [3 uM]

Row | Compound | % Reduction in Lipid Synthesis in Sebocytes [3 uM] | also measured
1 | COc1cc(OC)c(C(=O)/C=C/c2ccc(O)cc2OC)c(OC)c1 | Not Active | 
2 | COc1cc(/C=C/C(=O)c2ccc(O)cc2O)ccc1O | Not Active | 
3 | COc1cc(/C=C/C(=O)c2ccc(O)cc2C)cc(OC)c1OC | Not Active | 
4 | O=C(/C=C/c1ccccc1O)c1ccccc1O [2,2′-dihydroxy-chalcone] |  | % Cholera Toxin Reduction (2,2′-dihydroxychalcone 0.3 μM): 14.3%; % Cholera Toxin Reduction (2,2′-dihydroxychalcone 1.0 μM): 38.2%; % Cholera Toxin Reduction (2,2′-dihydroxychalcone 3.0 μM): 50.8%
5 | COc1ccc(/C=C/C(=O)c2c(O)cc(OC)cc2OC)cc1 |  | inhibition at 3 µM: 28.4%
6 | COc1cc(OC)c(C(=O)/C=C/c2ccc(OC)c(OC)c2)c(OC)c1 | Not Active | 
7 | COc1ccc(/C=C/C(=O)c2cc(OC)ccc2O)c(OC)c1 | Not Active | 
8 | COc1ccc(O)c(C(=O)/C=C/c2ccc(OC)c(OC)c2)c1 | Not Active | 
9 | O=C(/C=C/c1ccc(O)c(O)c1)c1ccc(O)cc1O |  | inhibition at 3 µM: 12.8%
10 | COc1cc(O)c(C(=O)/C=C/c2ccc(O)c(OC)c2)c(OC)c1 | Not Active | 
11 | O=C(/C=C/c1ccccc1O)c1ccccc1O [drawing 18] |  | inhibition at 3 µM: 47.3%
12 | COc1ccc(/C=C/C(=O)c2ccc(O)cc2O)cc1OC | Not Active | 
13 | COc1cc(O)c(C(=O)/C=C/c2ccc(OC)c(O)c2)c(OC)c1 |  | inhibition at 3 µM: 25.6%
14 | COc1ccc(/C=C/C(=O)c2c(O)cc(OC)c(OC)c2OC)c(OC)c1 | Not Active | 
15 | COc1cc(OC)c(C(=O)/C=C/c2ccc(O)cc2)c(OC)c1 | Not Active | 
16 | COc1ccc(O)c(C(=O)/C=C/c2cccc(OC)c2OC)c1 |  | inhibition at 3 µM: 28.7%
17 | COc1ccc(C(=O)/C=C/c2cccc(OC)c2OC)c(O)c1 | Not Active | 
18 | O=C1c2ccc(O)cc2OC1Cc1ccc(O)c(O)c1 (centres unmarked) |  | inhibition at 3 µM: 26.9%
19 | COc1ccc(C(=O)/C=C/c2ccc(OC)c(OC)c2)c(O)c1 |  | inhibition at 3 µM: 12.4%
20 | O=C(/C=C/c1ccc(O)c(O)c1)c1c(O)cc(O)cc1O | Not Active | 
21 | COc1cc(OC)c(C(=O)/C=C/c2ccc(OC)c(O)c2)c(OC)c1 | Not Active | 
22 | COc1c(/C=C/C(=O)c2ccc(O)cc2)ccc(O)c1O | Not Active | 
23 | COc1ccc(C(=O)/C=C/c2cc(OC)c(OC)c(OC)c2)c(O)c1 | Not Active | 
24 | O=C(/C=C/c1ccc(O)c(O)c1)c1ccc(OC2O[C@H](CO)C(O)[C@H](O)C2O)c(O)c1O (some centres unmarked) | Not Active | 
25 | COc1cccc(/C=C/C(=O)c2ccc(O)cc2O)c1OC | Not Active | 
26 | COc1ccc(C(=O)/C=C/c2ccc(OC)cc2OC)c(O)c1 | Not Active | 
27 | COc1cc(O)c(C(=O)/C=C/c2ccc(OC)c(OC)c2)c(O)c1 |  | inhibition at 3 µM: 20.5%
